Data as given in PMC8568133, “Evaluation of bisphenylthiazoles as a promising class for combating multidrug-resistant fungal infections” (PLoS ONE, 2021).
≈ marks a conversion by molar mass, not a printed value. Where two headings read alike, the source gives them in different places.

Columns and labels:
[1] = system: E. coli BW25113 (wild-type); test: Broth microdilution MIC, initial antibacterial screening; assay type: cell-based, Escherichia coli
Method: (§1) The minimum inhibitory concentrations (MICs) of the tested compounds and control drugs against clinically-relevant bacterial strains were determined using the broth microdilution method, according to guidelines outlined by the Clinical and Laboratory Standards Institute (CLSI), or as described previously.
(§2) Initial screening of the bisphenylthiazoles against Gram-positive and Gram-negative bacteria. Bacterial strains, (except C. difficile that was grown anaerobically on brain heart infusion supplemented agar at 37° C for 48 hours), were grown aerobically overnight on tryptone soy agar plates at 37° C. Afterwards, a bacterial solution equivalent to 0.5 McFarland standard was prepared and diluted in cation-adjusted Mueller-Hinton broth (CAMHB) (for S. aureus, and E. coli) to achieve a bacterial concentration of about 5 × 10^5 CFU/mL. C. difficile was diluted in brain heart infusion supplemented broth, supplemented with yeast extract, hemin and vitamin K to achieve a bacterial concentration of about 5 × 10^5 CFU/mL. Compounds and control drugs were added in the first row of the 96 -well plates, and serially diluted with the corresponding media containing bacteria. Plates were then, incubated aerobi cally at 37° C for 18-20 hours (for S. aureus and E. coli). C. difficile was incubated anaerobically at 37° C for 48 hours. […]
(§3) the visual growth of bacteria.

[2] = system: MRSA USA300; test: as above; assay type: cell-based, S. aureus
Method: as §1, §2, §3

[3] = system: E. coli JW55031 (tolC-mutant); test: microbe, parasite or virus in culture; assay type: cell-based, Escherichia coli
Method: as §1, §2, §3

[4] = system: Candida albicans; test: Antifungal broth microdilution MIC (50% growth inhibition) and MFC; assay type: cell-based
Method: (§4) Serial dilutions (from 128 μg/mL to 0.06 μg/mL) of the tested compounds and control drugs (fluconazole, itraconazole and amphotericin) (in triplicates), were screened against clinical isolates of Candida albicans, Candida auris, Candida glabrata, Candida parapsilosis, Candida tropicalis, Candida krusei, Cryptococcus neoformans, Cryptococcus gattii and Aspergillus fumigatus species using the broth microdilution method according to the Clinical and Laboratory Standards Institute guidelines. MICs were determined as the lowest concentration of the compounds that inhibited the fungal growth by 50% after incubation at 35 °C for 24 h (for Candida and Aspergillus), or 48 h (for Cryptococcus). The minimum fungicidal concentration (MFC) of these compounds was tested by plating 4 μL from wells with no growth onto YPD agar plates. The plates were incubated at 37 °C for 24 hours before recording the MFC, which was categorized as the lowest concentration that reduced fungal growth by 99.9% [45]. The experiment was repeated three independent times.

[5] = system: C. difficile ATCC BAA1870; test: Broth microdilution MIC, initial antibacterial screening (anaerobic); assay type: cell-based, Clostridioides difficile
Method: as §1, §2, §3

[6] = system: Candida auris; test: Checkerboard assay of compound 17 with standard antifungals; assay type: cell-based; conditions: for FICI (fractional inhibitory concentration index) / Interpretation of interaction: antifungal combined with compound 17; for MIC Combined, Antifungal: antifungal in combination with compound 17; for MIC: Candidozyma auris, checkerboard, agent alone
Method: To evaluate the interactions between bisphenylthiazoles and the standard antifungal agents (fluconazole, amphotericin B, 5-fluorocytosine and caspofungin) against 2 C. auris clinical isolates, a standard checkerboard assay was utilized as described in previous studies. The fractional inhibitory concentration index (FICI) was calculated for each interaction. Interactions where the FICI was ≤0.5 were categorized as synergistic (SYN). FICI values of >0.5–1.25 were categorized as additive (ADD). FICI values of >1.25–4 were categorized as indifferent, and FICI values of > 4 were categorized as antagonistic. The experiment was repeated three independent times.

[7] = system: Candida krusei; test: Antifungal broth microdilution MIC (50% growth inhibition) and MFC; assay type: cell-based; conditions: Pichia kudriavzevii, read-out: MIC
Method: as §4

[8] = system: Candida glabrata; test: as above; assay type: cell-based; conditions: Nakaseomyces glabratus
Method: as §4

[9] = system: Candida tropicalis; test: as above; assay type: cell-based; conditions: Candida tropicalis, ATCC1369
Method: as §4

[10] = system: Candida parapsilosis; test: Antifungal broth microdilution MIC (50% growth inhibition); assay type: cell-based; conditions: Lodderomyces parapsilosis, read-out: MIC
Method: as §4

[11] = system: Aspergillus fumigatus; test: as above; assay type: cell-based; conditions: Aspergillus fumigatus, read-out: MIC
Method: as §4

[12] = Escherichia coli, read-out: MIC
[13] = Staphylococcus aureus, MRSA USA300, read-out: MIC
[14] = Candida albicans, C. albicans SS5314 (wild-type), read-out: MIC
[15] = Clostridioides difficile, ATCCBAA1870, read-out: MIC
[16] = Candida auris 381 (azole-sensitive)
[17] = Candida auris 385 (azole-resistant)

Compound | MIC [1] [µg/mL] | MIC ([2]; MRSA USA300) [µg/mL] | MIC ([3]; E. coli JW55031 (tolC-mutant)) [µg/mL] | MIC ([4]; C. albicans SS5314 (wild-type)) [µg/mL] | MIC [5] [µg/mL] | MIC [1, 12] [µg/mL] | MIC [2, 13] [µg/mL] | MIC ([3]; Escherichia coli) [µg/mL] | MIC [5, 15] [µg/mL] | other results
Cc1nc(-c2ccc(-c3ccccc3)cc2)sc1-c1nnc(N2CCC[C@H]2CO)o1 [Compound 20, (S)-{1-[5-(2-((1,1’-Biphenyl)-4-yl)-4-methylthiazol-5-yl)-1,3,4-oxadiazol-2-yl]pyro-lidin-2-yl}methanol] | >64 | >64 | >64 | >64 | 64 (≈ 153 µM) |  |  |  |  | 
Cc1nc(-c2ccc(-c3ccccc3)cc2)sc1-c1nnc(NCCN(C)C)o1 [Compound 8, N-{5-[2-((1,1’-Biphenyl)-4-yl)-4-methylthiazol-5-yl]-1,3,4-oxadiazol-2-yl}-N,N-dimethylethane-1,2-diamine] | 64 (≈ 158 µM) | 32 (≈ 78.9 µM) | 16 (≈ 39.5 µM) | 16 (≈ 39.5 µM) | 16 (≈ 39.5 µM) |  |  |  |  | 
Cc1nc(-c2ccc(-c3ccccc3)cc2)sc1-c1nnc(N2CCC[C@@H]2C(N)=O)o1 [Compound 14, (R)-1-{5-[2-((1,1’-biphenyl)-4-yl)-4-methylthiazol-5-yl]-1,3,4-oxadiazol-2-yl}pyro-lidine-2-carboxamide] | >64 | >64 | >64 | >64 | 64 (≈ 148 µM) |  |  |  |  | 
Cc1nc(-c2ccc(-c3ccccc3)cc2)sc1-c1nnc(N2CCCCC2CN)o1 (stereo not shown) [Compound 15, {1-[5-(2-((1,1’-Biphenyl)-4-yl)-4-methylthiazol-5-yl)-1,3,4-oxadiazol-2-yl]piperidin-2-yl}methanamine] |  |  |  |  |  | > 64 | 16 (≈ 37.1 µM) | 16 (≈ 37.1 µM) | 16 (≈ 37.1 µM) | melting point: 225 to 227 °C; MIC [4, 14]: 16 µg/mL (≈ 37.1 µM)
Nc1nc(=O)[nH]cc1F [5-Fluorocytosine] |  |  |  |  |  |  |  |  |  | FICI (fractional inhibitory concentration index) [6, 16]: 1.250; Interpretation of interaction [6, 16]: ADD (FICI values of >0.5–1.25 were categorized as additive (ADD)); MIC Combined, Antifungal [6, 16]: 0.125 µg/mL; FICI (fractional inhibitory concentration index) [6, 17]: 1.125; Interpretation of interaction [6, 17]: ADD (FICI values of >0.5–1.25 were categorized as additive (ADD)); MIC Combined, Antifungal [6, 17]: 0.25 µg/mL; MIC [6, 16]: 0.125 µg/mL; MIC [6, 17]: 0.25 µg/mL
Cc1nc(-c2ccc(-c3ccccc3)cc2)sc1-c1nnc(N2CCC[C@H]2C(N)=O)o1 [Compound 13, (S)-1-{5-[2-((1,1’-biphenyl)-4-yl)-4-methylthiazol-5-yl]-1,3,4-oxadiazol-2-yl}pyro-lidine-2-carboxamide] | >64 | >64 | >64 | >64 | >64 |  |  |  |  | 
Cc1nc(-c2ccc(-c3ccccc3)cc2)sc1-c1nnc(N2CC[C@@H](N(C)C)C2)o1 [Compound 11, (R)-1-{5-[2-((1,1’-biphenyl)-4-yl)-4-methylthiazol-5-yl]-1,3,4-oxadiazol-2-yl}-N,N-dimethylpyrrolidin-3-amine] |  |  |  |  |  | > 64 | > 64 | > 64 | > 64 | melting point: 165 to 167 °C; MIC [4, 14]: > 64 µg/mL
CC[C@H](C)C[C@H](C)CCCCCCCCC(=O)N[C@H]1C[C@@H](O)[C@@H](NCCN)NC(=O)[C@@H]2[C@@H](O)CCN2C(=O)[C@H]([C@H](O)CCN)NC(=O)[C@H]([C@H](O)[C@@H](O)c2ccc(O)cc2)NC(=O)[C@@H]2C[C@@H](O)CN2C(=O)[C@H]([C@@H](C)O)NC1=O [Caspofungin] |  |  |  |  |  |  |  |  |  | MIC ([7]; ATCC34135, C. krusei ATCC 34135): 0.5 µg/mL (≈ 0.457 µM); MIC ([7]; C. krusei CAB 396420): 0.5 µg/mL (≈ 0.457 µM); MIC [8]: 0.125 µg/mL (≈ 0.114 µM); MIC ([8]; ATCC66032, C. glabrata ATCC 66032, read-out: MIC): 0.25 µg/mL (≈ 0.229 µM); MIC [9]: 0.125 µg/mL (≈ 0.114 µM); MIC ([4]; Candida albicans, ATCC10231): 0.125 µg/mL (≈ 0.114 µM); MIC ([4]; Candida albicans, C. albicans NR-29448 (fluconazole-resistant), read-out: MIC): 0.25 µg/mL (≈ 0.229 µM); FICI (fractional inhibitory concentration index) [6, 16]: 1.250; Interpretation of interaction [6, 16]: ADD (FICI values of >0.5–1.25 were categorized as additive (ADD)); MIC Combined, Antifungal [6, 16]: 0.5 µg/mL; FICI (fractional inhibitory concentration index) [6, 17]: 1.125; Interpretation of interaction [6, 17]: ADD (FICI values of >0.5–1.25 were categorized as additive (ADD)); MIC Combined, Antifungal [6, 17]: 0.063 µg/mL; MIC [6, 16]: 0.5 µg/mL; MIC [6, 17]: 0.063 µg/mL; MIC ([10]; ATCC22019, C. parapsilosis ATCC 22019): 0.5 µg/mL (≈ 0.457 µM); MIC ([10]; C. parapsilosis CAB 502638): 0.5 µg/mL (≈ 0.457 µM)
CNC(C)C1CCC(N)C(OC2C(N)CC(N)C(OC3OCC(C)(O)C(NC)C3O)C2O)O1 (stereo not shown) [Gentamicin, reference compound] |  |  |  |  |  | ≤ 0.5 |  | ≤ 0.5 |  | 
CN[C@H](CC(C)C)C(=O)N[C@H]1C(=O)N[C@@H](CC(N)=O)C(=O)N[C@H]2C(=O)N[C@H]3C(=O)N[C@H](C(=O)N[C@H](C(=O)O)c4cc(O)cc(O)c4-c4cc3ccc4O)[C@H](O)c3ccc(c(Cl)c3)Oc3cc2cc(c3O[C@@H]2O[C@H](CO)[C@@H](O)[C@H](O)[C@H]2O[C@H]2C[C@](C)(N)[C@H](O)[C@H](C)O2)Oc2ccc(cc2Cl)[C@H]1O [Vancomycin, reference compound] |  |  |  |  |  |  |  |  |  | MIC ([2]; Staphylococcus aureus): 1 µg/mL (≈ 0.69 µM)
Cc1nc(-c2ccc(-c3ccccc3)cc2)sc1-c1nnc(N2CC[C@H](N(C)C)C2)o1 [Compound 12, (S)-1-{5-[2-((1,1’-biphenyl)-4-yl)-4-methylthiazol-5-yl]-1,3,4-oxadiazol-2-yl}-N,N-dimethylpyrrolidin-3-amine] |  |  |  |  |  | > 64 | 16 (≈ 37.1 µM) | > 64 | 32 (≈ 74.1 µM) | melting point: 185 to 187 °C; MIC [4, 14]: 16 µg/mL (≈ 37.1 µM)
CCC(C)n1ncn(-c2ccc(N3CCN(c4ccc(OCC5COC(Cn6cncn6)(c6ccc(Cl)cc6Cl)O5)cc4)CC3)cc2)c1=O (stereo not shown) [Itraconazole, reference compound] |  |  |  |  |  |  |  |  |  | MIC ([11]; A. fumigatus NR 35303): 1 µg/mL (≈ 1.42 µM); MIC ([11]; A. fumigatus NR 35304): 1 µg/mL (≈ 1.42 µM)
Cc1nc(-c2ccc(-c3ccccc3)cc2)sc1-c1nnc(NCCO)o1 [Compound 19, 2-{[5-(2-((1,1’-Biphenyl)-4-yl)-4-methylthiazol-5-yl)-1,3,4-oxadiazol-2-yl]amino} ethan-1-ol] |  |  |  |  |  | > 64 | > 64 | > 64 | 64 (≈ 169 µM) | melting point: 210 to 213 °C; MIC [4, 14]: > 64 µg/mL
Cc1nc(-c2ccc(-c3ccccc3)cc2)sc1-c1nnc(NCC(=N)N)o1 [Compound 9, 2-{[5-(2-((1,1’-biphenyl)-4-yl)-4-methylthiazol-5-yl)-1,3,4-oxadiazol-2-yl]amino} acetimidamide] | >64 | >64 | >64 | >64 | >64 |  |  |  |  | 
Cc1nc(-c2ccc(-c3ccccc3)cc2)sc1-c1nnc(N2CCC[C@@H]2CO)o1 [Compound 21, (R)-{1-[5-(2-((1,1’-Biphenyl)-4-yl)-4-methylthiazol-5-yl)-1,3,4-oxadiazol-2-yl]pyro-lidin-2-yl}tmethanol] | >64 | >64 | >64 | >64 | >64 |  |  |  |  | 
CC(=O)NC[C@H]1CN(c2ccc(N3CCOCC3)c(F)c2)C(=O)O1 [Linezolid, reference compound] |  |  |  |  |  | > 64 | 1 (≈ 2.96 µM) | 8 (≈ 23.7 µM) | 1 (≈ 2.96 µM) | 
